# Data published in patent US20250326722A1 (SHANGHAI HANSOH BIOMEDICAL CO., LTD., priority 2022, published 2025).
# Assays:
# [1] = target: PCSK9 secreted by HepG2 cells (Homo sapiens (Human), UniProt Q8NBP7); assay: Effect on the concentration of PCSK9 secreted by HepG2 cells (ELISA); type: cell-based; conditions: 48 hours incubation, read-out: Inhibitory activity on PCSK9, IC50
# Text: • 1. Experimental objective: To detect the inhibitory effect of the compounds on PCSK9. • 2. Experimental instruments and reagents: • 2.1 Instruments:
# • CircuLex Human PCSK9 ELISA kit (MBL: CY-8079); • DMEM (Gibco: 31966-021) • FBS (Sigma: S5394) • Compound plate (Thermo: 1353506) • Complete culture medium: DMEM+10% FBS+1×P/S; • Experimental culture medium: DMEM+10% FBS • Cell strain: HepG2 (ATCC: HB-8065)
# A self-adhesive seal was applied, the plate was placed on a plate shaker at room temperature, gently shaken, uniformly mixed, and incubated for 1 hour. • 11) The plate was placed on the plate washer, the washing liquid was set to 350 μL per well, and the plate was washed 4 times repeatedly. • 12) 100 μL/well of an HRP-conjugated detection antibody was added, a self-adhesive seal was applied, and the plate was placed on the plate shaker, well mixed uniformly, and incubated for 1 hour. • 13) The plate was placed on the plate washer, the washing liquid was set to 350 μL per well, and the plate was washed 4 times repeatedly. • 14) 100 μL/well of Substrate reagent was added, and the plate was placed in the dark, applied with a self-adhesive seal, placed on the plate shaker, well mixed uniformly, and incubated for 10-20 minutes. • 15) 100 μL/well of Stop solution (1N H2SO4) was added and mixed uniformly. • 16) The optical density (OD) value in each well was measured in sequence at a wavelength of 450 nm by the microplate reader. Detection was carried out within 30 min after the reaction was stopped.
# (§1) After the OD values were read by the microplate reader, the OD value of the 0-concentration standard in the standard group was subtracted from the OD values of the standards, control group, and samples to obtain the actual OD values for these wells. A standard curve was plotted with Graphpad and the concentration of the sample was calculated. If the dilution was performed during the sample detection, the calculated sample concentration was necessarily multiplied by the corresponding dilution ratio in the final calculation, which was the actual concentration of the sample. Inhibition rate=(actual concentration in control-actual concentration in sample)/actual concentration in control*100. According to the inhibition rates corresponding to the different concentrations, IC50 was derived by Graphpad.
# [2] = test system: LDLR level in HepG2 cells; assay: Effect on the LDLR level in HepG2 cells (ELISA); type: cell-based, human; set-up: concentration or dose not given beside the values; conditions: 48 hours incubation, LDLR ELISA of lysate
# Procedure: To detect the effect of the compounds on the LDLR protein level.
# Envision (PE-Cisbio: 2105-0020), centrifuge (Eppendorf: 5810R), water purifier (THERMO: Pacific T II+Micropure), plate washer (Thermo: […] VERSA), and microplate shaker (Thermo: 88882006)
# • 1) HepG2 cell strain was cultured in the complete culture medium at 37° C., 5% CO2 to 70-90% confluence. • 2) The cells were digested and resuspended in the experimental culture medium, inoculation was performed at 25,000 cells/well/200 μL in a 96-well cell culture plate, and the cells were cultured at 37° C., 5% CO2 for 20-24 hours. • 3) The culture medium was removed from the cell culture plate, and the cell culture plate was washed once by adding 200 μl of the experimental culture medium to each well. • 4) Preparation of positive control compound and compound to be tested: the positive control compound and the compound to be tested were diluted on the compound plate. • 5) The diluted compound was added to the cell culture plate at 250 μL per well and incubated at 37° C. and 5% CO2 for 48 hours. • 6) The cell culture medium was removed, the cells were washed with PBS, and 50 μL of the cell lysis buffer and the protein inhibitor were added. • 7) After centrifugation, the lysate was removed and the sample was stored for later use. • 8) Preparation of standard curve: corresponding volumes of Dilution buffer were successively added to respective standard tubes, and the standard was diluted in series by taking the corresponding volume from the original tube or the last concentration tube. • 9) Preparation of washing liquid: 10× Wash buffer was diluted into 1× with Milli-Q for later use. • 10) According to the standard curve wells and sample wells set according to a plate map, 80 μL/well of the corresponding standards and samples were added to the wells, with 2 replicate wells. A well in which no standard was added was used as a background value well. A self-adhesive seal was applied, the plate was placed on a plate shaker at room temperature, gently shaken, uniformly mixed, and incubated for 2 hours. • 11) The plate was placed on the plate washer, the washing liquid was set to 350 μL per well, and the plate was washed 4 times repeatedly. • 12) 200 μL of Human LDLR conjugate was added, a self-adhesive seal was applied, and the plate was placed on the plate shaker, well mixed uniformly, and incubated for 2 hours. • 13) The plate was placed on the plate washer, the washing liquid was set to 350 μL per well, and the plate was washed 4 times repeatedly. • 14) 200 μL/well of Substrate solution was added, and the plate was placed in the dark, applied with a self-adhesive seal, placed on the plate shaker, well mixed uniformly, and incubated for 20 minutes. • 15) 50 μL/well of Stop solution was added and mixed uniformly over 20 min. • 16) The optical density (OD) value in each well was measured in sequence at a wavelength of 450 nm by the microplate reader.
# as §1, with “Concentration increase %=(actual” for “Inhibition rate=(actual”, “control*100.” for “control*100. According to the inhibition rates corresponding to the different concentrations, IC50 was derived by Graphpad.”
# [3] = Pharmacokinetic determination in mice (plasma); type: in vivo, C57BL/6J mice; conditions: C57 mice, PO administration, 5 mpk; for AUC(0-inf) / half-life / MRT / Cmax: male, C57BL/6J, mouse, 5 mg/kg; for AUC(0-inf): read-out: Area under the curve AUC0-∞; for half-life: read-out: Half-life t1/2 (converted); for MRT: read-out: Mean residence time MRT; for Cmax: read-out: Plasma concentration Cmax
# Procedure: C57BL/6J mice were used as test animals to study the pharmacokinetic behavior of the compounds of the present disclosure in mice (plasma) after oral and intravenous administration.
# C57 mice, male, purchased from Shanghai Bk Lab Animal Co., Ltd., with animal production license number (SCXK (Shanghai) 2013-0006 NO.311620400001794).
# • Preparation of oral drug: 10% Solutol HS15
# 10 g of Solutol HS15 solid was weighed, dissolved in 90 mL of pure water, uniformly mixed, stirred, and ultrasonically treated to form a clear solution.
# The compound of the present disclosure was weighed and dissolved in this solution, uniformly shaken, and ultrasonically treated for 15 minutes to obtain a colorless clear solution with a concentration of 0.5 mg/mL. • Preparation of intravenous drug: 5% DMSO+10% Solutol HS15+85% PBS […]
# 3 male C57 mice were fasted overnight and then respectively administered PO at a dose of 5 mg/kg and a volume of 10 mL/kg. […]
# Before and after administration of mice, 0.04 mL of blood was collected from the orbit at 0.083 (iv), 0.25, 0.5, 1, 2, 4, 8, and 24 hours, and placed in EDTA-K2 test tubes, which was centrifuged at 6000 rpm at 4° C. for 6 min to separate plasma which was stored at −80° C.; and the […] were fed 4 h after administration.
# The final determination results were obtained by using an LCMS/MS method.
# The main pharmacokinetic parameters were calculated using WinNonlin 6.1.
# PCSK9 protein = PCSK9 protein (Homo sapiens (Human), UniProt Q8NBP7); assay: Binding experiment: surface plasmon resonance (SPR) binding to PCSK9 protein
# Text: • 1. Experimental objective: To detect the action of compounds to bind PCSK9 protein by a conventional surface plasmon resonance (SPR) method.
# PCSK9 secreted by HepG2 cells, sequence (Q8NBP7 153-692): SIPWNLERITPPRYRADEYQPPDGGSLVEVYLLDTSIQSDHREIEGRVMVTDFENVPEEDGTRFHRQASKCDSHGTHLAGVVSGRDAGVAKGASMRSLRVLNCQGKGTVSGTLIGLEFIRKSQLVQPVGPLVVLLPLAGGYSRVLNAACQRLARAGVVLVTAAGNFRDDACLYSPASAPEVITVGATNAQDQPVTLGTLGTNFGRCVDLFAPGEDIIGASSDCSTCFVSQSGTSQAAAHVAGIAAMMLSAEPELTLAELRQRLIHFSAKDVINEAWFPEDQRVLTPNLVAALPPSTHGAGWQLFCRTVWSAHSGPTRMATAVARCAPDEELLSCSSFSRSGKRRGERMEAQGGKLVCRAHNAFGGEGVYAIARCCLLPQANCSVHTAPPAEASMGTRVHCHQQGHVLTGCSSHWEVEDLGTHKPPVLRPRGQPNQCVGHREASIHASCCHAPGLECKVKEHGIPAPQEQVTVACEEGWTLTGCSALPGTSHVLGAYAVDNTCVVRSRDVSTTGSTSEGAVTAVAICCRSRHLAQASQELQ
# PCSK9 secreted by HepG2 cells, sequence (Q8NBP7 31-152 partner): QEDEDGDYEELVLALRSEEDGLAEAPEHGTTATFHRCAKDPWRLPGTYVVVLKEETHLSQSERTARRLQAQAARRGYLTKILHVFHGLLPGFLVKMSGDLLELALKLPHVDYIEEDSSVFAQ
# PCSK9 protein, sequence (Q8NBP7 153-692): as the sequence (Q8NBP7 153-692) above
IC50 [1],Structure (SMILES),LDLR expression level [2],further results
18 µM,O=c1c(-c2ccc(N[C@H]3CC[C@H](Nc4ncc(OC(F)F)cn4)C3)nc2)ccc2ccccn12 [Example 47],859%,
11 µM,"FC(F)Oc1cnc(N[C@H]2CC[C@H](Nc3ccc(-c4cccc5ccnn45)cn3)C2)nc1 [Example 52, (1S,3S)—N1-(5-(difluoromethoxy)pyrimidin-2-yl)-N3-(5-(pyrazolo[1,5-a]pyridin-7-yl)pyridin-2-yl)cyclopentane-1,3-diamine]",278%,
24.1 µM,FC(F)Oc1cnc(N[C@H]2CC[C@H](Nc3ccc(-c4cccn5ccnc45)cn3)C2)nc1 [Example 53],175%,
12.1 µM,"O=C1c2ccncc2CN1c1ccc(N[C@H]2CC[C@H](Nc3ncc(OC(F)F)cn3)C2)nc1 [Example 76, 2-(6-(((1S,3S)-3-((5-(difluoromethoxy)pyrimidin-2-yl)amino)cyclopentyl)amino)pyridin-3-yl)-2,3-dihydro-1H-pyrrolo[3,4-c]pyridin-1-one]",156%,
16.3 µM,"O=S1(=O)CCCCN1c1ccc(N[C@H]2CC[C@H](Nc3ncc(OC(F)F)cn3)C2)nc1 [Example 92, 2-(6-(((1S,3S)-3-((5-(difluoromethoxy)pyrimidin-2-yl)amino)cyclopentyl)amino)pyridin-3-yl)-1,4-butanesulfolactam]",105%,
2.6 µM,"N#Cc1cnn2c(-c3ccc(N[C@H]4CC[C@H](Nc5ncc(OC(F)F)cn5)C4)nc3)cccc12 [Example 99, 7-(6-(((1S,3S)-3-((5-(difluoromethoxy)pyrimidin-2-yl)amino)cyclopentyl)amino)-3-yl) pyrazolo[1,5-a]pyridine-3-carbonitrile]",274%,
6.3 µM,"Fc1cnn2c(-c3ccc(N[C@H]4CC[C@H](Nc5ncc(OC(F)F)cn5)C4)nc3)cccc12 [Example 102, (1S,3S)—N1-(5-(difluoromethoxy)pyrimidin-2-yl)-N^3-(5-(3-fluoropyrazolo[1,5-a]pyridin-7-yl)pyridin-2-yl)cyclopentane-1,3-diamine]",215%,
1.2 µM,"O=C1c2cccnc2CN1c1ccc(NC2CCC(Nc3ncc(OC(F)(F)F)cn3)C2)nc1 [Example 122, 6-(6-(((1S,3S)-3-((5-(trifluoromethoxy)pyrimidin-2-yl)amino)cyclopentylamino)pyridin-3-yl)-6,7-dihydro-5H-pyrrolo[3,4-b]pyridin-5-one]",,Area under the curve AUC0-∞ [3]: 13239 ng·h/mL; Half-life t1/2 [3]: 3.2 h; Mean residence time MRT [3]: 4.5 h; Plasma concentration Cmax [3]: 2333 ng/mL; Time to peak tmax [3]: 0.5 h; Kd (PCSK9 protein): 0.0022 µM
24.5 µM,O=C1c2cccnc2CN1c1ccc(N[C@H]2CC[C@H](Nc3ncc(C(F)(F)F)nn3)C2)nc1 [Example 145],,Time to peak tmax [3]: 0.5 h; AUC(0-inf) [3]: 12200 ng·h/mL; half-life [3]: 3.8 h; MRT [3]: 4.6 h; Cmax [3]: 2370 ng/mL; Kd (PCSK9 protein): 0.0032 µM
19.9 µM,"O=C1c2nc(C(F)(F)F)ccc2CN1c1ccc(N[C@H]2CC[C@H](Nc3nc4cc(F)ccn4n3)C2)nc1 [Example 155, 6-(6-(((1S,3S)-3-((7-fluoro-[1,2,4]triazolo[1,5-a]pyridin-2-yl)amino)cyclopentyl)amino)pyridin-3-yl)-2-(trifluoromethyl)-5,6-dihydro-7H-pyrrolo[3,4-b]pyridin-7-one]",,Time to peak tmax [3]: 0.5 h; AUC(0-inf) [3]: 25500 ng·h/mL; half-life [3]: 5.9 h; MRT [3]: 1.9 h; Cmax [3]: 10000 ng/mL; Kd (PCSK9 protein): 0.0028 µM
5.9 µM,"O=C1c2nc(C(F)(F)F)ccc2CN1c1ccc(N[C@H]2CC[C@H](Nc3ncc(C4CC4)nn3)C2)nc1 [Example 159, 6-(6-(((1S,3S)-3-((6-cyclopropyl-1,2,4-triazin-3-yl)amino)cyclopentyl)amino)pyridin-3-yl)-2-(trifluoromethyl)-5,6-dihydro-7H-pyrrolo[3,4-b]pyridin-7-one]",105%,
2.8 µM,"CC(C)(C)c1ccc2c(n1)C(=O)N(c1ccc(N[C@H]3CC[C@H](Nc4nc5cc(F)ccn5n4)C3)nc1)C2 [Example 164, 2-(Tert-butyl)-6-(6-(((1S,3S)-3-((7-fluoro-[1,2,4]triazolo[1,5-a]pyridin-2-yl)amino)cyclopentyl)amino)pyridin-3-yl)-5,6-dihydro-7H-pyrrolo[3,4-b]pyridin-7-one]",254%,
